Test results as given in ChEMBL document CHEMBL5053535, “Design, synthesis and biological evaluation of novel aminopyrazole- and 7-azaindole-based Nek1 inhibitors and their effects on zebrafish kidney development” (Bioorg Med Chem Lett, 2021).

How the values were obtained:
[1] = Toxicity in zebra fish embryos assessed as lethality at 1.5 uM measured after 96 hrs relative to control; assay type: organism-based, Danio rerio; details: zebrafish, in vivo, read-out: Activity
[2] = molecular target: T1, Serine/threonine-protein kinase Chk1 (Homo sapiens) (UniProt O14757); test: Inhibition of human recombinant full length N-terminal His tagged CHK1 expressed in baculovirus infected Sf21 insect cells using CHKtide as substrate assessed as residual activity at 1 uM pretreated for 20 mins followed by [33P]-ATP addition measured after 120 mins by radiometric hotspot kinase assay relative to control; details: time 140.0 min
T1 sequence (whole entry): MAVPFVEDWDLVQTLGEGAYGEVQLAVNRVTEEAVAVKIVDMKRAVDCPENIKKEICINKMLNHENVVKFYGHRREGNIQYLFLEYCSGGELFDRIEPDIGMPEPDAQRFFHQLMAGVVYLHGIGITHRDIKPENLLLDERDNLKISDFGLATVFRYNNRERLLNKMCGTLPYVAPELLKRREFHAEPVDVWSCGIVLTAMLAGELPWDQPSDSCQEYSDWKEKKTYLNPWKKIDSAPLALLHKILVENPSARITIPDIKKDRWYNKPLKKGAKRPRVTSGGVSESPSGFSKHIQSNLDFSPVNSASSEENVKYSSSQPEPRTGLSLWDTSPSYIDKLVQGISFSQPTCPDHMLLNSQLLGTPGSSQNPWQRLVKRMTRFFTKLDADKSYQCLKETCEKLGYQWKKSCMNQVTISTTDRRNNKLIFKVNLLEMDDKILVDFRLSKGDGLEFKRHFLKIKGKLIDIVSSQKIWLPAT

Danio rerio [3] = organism: Danio rerio; test: Toxicity in zebra fish embryos assessed as phenotype changes at 0.01 to 2.5 uM measured after 96 hrs; assay type: organism-based; details: zebrafish, in vivo, dose 0.01-2.5 µM
Danio rerio [4] = organism: Danio rerio; test: (§1) Toxicity in wild type zebra fish model of polycystic kidney disease assessed as increase in fluorescence intensity at 0.5 uM incubated for 48 hrs in presence of N-phenyl thiourea further treated with PT-yellow for 20 mins followed by dye washout and incubated in solution containing compound for 96 hrs by fluorescence imaging analysis; assay type: organism-based; details: zebrafish, in vivo
[5] = Permeability across basolateral to apical side in human Caco-2 cells at pH 7.4 assessed as compound recovery at 1 uM; assay type: ADME, cell-based; details: Caco-2, pH 7.4, read-out: Drug recovery
Danio rerio [6] = organism: Danio rerio; test: as §1, with “minor tubular volume expansion” for “increase in fluorescence intensity”; assay type: organism-based; details: zebrafish, in vivo

In the case of `COC(=O)c1cccc(-c2cnc3[nH]cc(-c4cccnc4)c3c2)c1`, the mortality at 96 h, 1.5 µM [1] is reported as 100%, the Activity [2] is reported as 48.5% and the Activity (Danio rerio [3]) is reported as “Non-Toxic”. For the same molecule, the Activity (Danio rerio [4]) was “Toxic”, the recovery at 1 µM [5] was 29.6% and the Activity (Danio rerio [6]) was “Toxic”.
